Data taken from patent US6534524B1, “Indazole compounds and pharmaceutical compositions for inhibiting protein kinases, and methods for their use” (Agouron Pharmaceuticals, Inc., priority 1999, dated 2003).
Read-outs that look alike come from different tables or passages of the source. One block for each compound: values may come before it.

Columns and labels:
[1] = Determination of inhibitor concentration in mouse plasma after intraperitoneal and oral dosing; format: in vivo
Description: Blood collection was via ocular bleed at 0.5, 1, 4 hr with the final time point, 7 hour, via intracardiac puncture. The blood was centrifuged to collect plasma, which was then stored at −80° C. until analysis. Samples were prepared for analysis using an internal standard and sodium hydroxide. After vortexing, ethyl acetate was added and mixed for 15-20 minutes at ambient temperature. […] The samples were then analyzed via HPLC or LC-MS. Compound levels were quantitated by generating a standard curve of known compound concentration in mouse plasma.

[2] = tested on: human umbilical vein endothelial cells (HUVEC); experiment: HUVEC proliferation assay (VEGF-stimulated, MTT); format: cell-based; settings: for % inhibition of the proliferation of HUVEC: Library II, Y=S; for % inhibition of the proliferation of HUVEC / % inhibition: crude reaction mixtures; for % inhibition: Library III, HUVEC proliferation, nominal concentration of 0.5 nM;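 on % inhibition of the proliferation of HUVEC: relative to VEGF-stimulated control minus starvation-medium baseline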
[3] = PO, 10 mg/kg, vehicle PEG400:H2O pH 2.3 60:40
[4] = PO, 25 mg/kg, vehicle PEG400:H2O pH 2.3 30:70
[5] = female, PO, 25 mg/kg, vehicle PEG400:H2O pH 2.3 30:70, read-out: Cmin (7 hr conc.)
[6] = IP, 25 mg/kg, vehicle PEG400:H2O pH 2.3 60:40
[7] = PO, 50 mg/kg, vehicle PEG400:H2O pH 2.3 60:40
[8] = IP, 25 mg/kg, vehicle PEG400:H2O pH 2.3 30:70
[9] = PO, 50 mg/kg, vehicle PEG400:H2O pH 2.3 30:70
[10] = female, PO, 8 mg/kg, vehicle 0.5% CMC
[11] = female, PO, 8 mg/kg, vehicle 0.5% CMC, read-out: Cmax
[12] = female, PO, 8 mg/kg, vehicle 0.5% CMC, read-out: Cmin (7 hr conc.)
[13] = female, PO, 25 mg/kg, vehicle 0.5% CMC
[14] = female, PO, 25 mg/kg, vehicle 0.5% CMC, read-out: Cmax
[15] = female, PO, 25 mg/kg, vehicle 0.5% CMC, read-out: Cmin (7 hr conc.)
[16] = female, PO, 40 mg/kg, vehicle 0.5% CMC
[17] = female, PO, 40 mg/kg, vehicle 0.5% CMC, read-out: Cmax
[18] = female, PO, 40 mg/kg, vehicle 0.5% CMC, read-out: Cmin (7 hr conc.)
[19] = female, PO, 200 mg/kg, vehicle 0.5% CMC
[20] = female, PO, 200 mg/kg, vehicle 0.5% CMC, read-out: Cmax
[21] = female, PO, 200 mg/kg, vehicle 0.5% CMC, read-out: Cmin (7 hr conc.)
[22] = 0.5 mM (column head; text: nominal 0.5 nM)
[23] = 2 mM (column head; text: nominal 2 nM)

SMILES: Cc1cccc(C(=O)Nc2cccc(Oc3ccc4c(/C=C/c5ccccc5)n[nH]c4c3)c2)c1 [5b]
- AUClast [1, 3]: 61 ng·h/mL
- plasma half-life (T1/2) [1, 3]: 3.1 h

SMILES: CCn1nc(C)cc1C(=O)Nc1cccc(Oc2ccc3c(/C=C/c4cn(C)c(C)n4)n[nH]c3c2)c1 [Example 31(f), 6-[3-((1-Ethyl-3-methyl-1H-pyrazol]-5-yl)carboxanido)phenoxyl-3-E-[2-(1,2-dimethyl-1Himidazol-4-yl)ethenyl]-1H-indazole]
- plasma half-life (T1/2) [1, 4]: 2.6 h
- AUC(0-t) ([1]; female, PO, 25 mg/kg, vehicle PEG400:H2O pH 2.3 30:70): > 245000 ng·h/mL
- Cmax ([1]; female, PO, 25 mg/kg, vehicle PEG400:H2O pH 2.3 30:70, read-out: Cmax): > 50000 ng/mL
- concentration at 7 h [1, 5]: 9520 ng/mL

SMILES: Cc1ccc2cc(NC(=O)c3ccccc3Sc3ccc4c(/C=C/c5ccccn5)n[nH]c4c3)ccc2n1 [Example 33(b)]
- AUClast [1, 6]: 11245 ng·h/mL
- Cmax [1, 6]: 1990 ng/mL
- plasma half-life (T1/2) [1, 6]: 3.0 h
- AUClast [1, 7]: 3925 ng·h/mL
- Cmax [1, 7]: 1496 ng/mL
- plasma half-life (T1/2) [1, 7]: 3.0 h
- concentration at 7 h ([1]; female, IP, 25 mg/kg, vehicle PEG400:H2O pH 2.3 60:40, read-out: Cmin (7 hr conc.)): 902 ng/mL
- concentration at 7 h ([1]; female, PO, 50 mg/kg, vehicle PEG400:H2O pH 2.3 60:40, read-out: Cmin (7 hr conc.)): 76 ng/mL

- AUClast [1, 8]: 2840 ng·h/mL
- plasma half-life (T1/2) [1, 8]: 0.8 h
- AUClast [1, 9]: 4048 ng·h/mL
- plasma half-life (T1/2) [1, 9]: 0.8 h
- concentration at 7 h ([1]; female, IP, 25 mg/kg, vehicle PEG400:H2O pH 2.3 30:70, read-out: Cmin (7 hr conc.)): 12 ng/mL
- concentration at 7 h ([1]; female, PO, 50 mg/kg, vehicle PEG400:H2O pH 2.3 30:70, read-out: Cmin (7 hr conc.)): 13 ng/mL
SMILES: CC(C)NC(=O)c1ccccc1Sc1ccc2c(/C=C/c3ccccn3)n[nH]c2c1 [Example 35(b), 6-[2-(i-Propylcarbamoyl)phenylsulfanyl]-3-E-[2-(pyridin-2-yl)ethenyl]-1H-indazole]

- AUClast [1, 4]: 292 ng·h/mL
- plasma half-life (T1/2) [1, 4]: 1.7 h
- concentration at 7 h [1, 5]: 5 ng/mL
SMILES: O=C(NCCc1cccs1)c1ccccc1Sc1ccc2c(/C=C/c3ccccn3)n[nH]c2c1 [Example 35(hh), 6-[2-(2-(Thien-2-yl)ethylcarbamoyl)phenylsulfanyl]-3-E-[2-(pyridin-2-yl)ethenyl]-1H-indazole]

SMILES: CN(O)C(=O)c1ccccc1Sc1ccc2c(/C=C/c3ccccn3)n[nH]c2c1 [Example 35(o), 6-[2-(N-Hydroxy-N-methylcarbamoyl)phenylsulfanyl]-3-E-[2-(pyridin-2-yl)ethenyl]-1H-indazole]
- IC50 ([2]; Homo sapiens, HUVEC, + albumin, read-out: HUVEC + albumin IC50): > 100 nM
- AUClast [1, 4]: 683 ng·h/mL
- Cmax [1, 4]: 486 ng/mL
- plasma half-life (T1/2) [1, 4]: 1.0 h
- concentration at 7 h [1, 5]: 3 ng/mL

SMILES: Cc1cc(C(=O)Nc2cc(C(=O)c3ccc4c(/C=C/c5ccccn5)n[nH]c4c3)ccc2C)n(C)n1 [Example 41(hh), 6-[3-((1,3-Dimethyl-1H-pyrazol-5-yl)carboxaindo)-4-methylbenzoyl]-3-E-[2-(pyridin-2-yl)ethenyl]-1H-indazole]
- AUClast [1, 4]: 5601 ng·h/mL
- Cmax [1, 4]: 1526 ng/mL
- plasma half-life (T1/2) [1, 4]: 7.9 h
- concentration at 7 h [1, 5]: 405 ng/mL

- plasma half-life (T1/2) [1, 4]: 5.2 h
- AUC(0-t) ([1]; female, IP, 25 mg/kg, vehicle PEG400:H2O pH 2.3 30:70): > 27000 ng·h/mL
SMILES: Cc1cc(C(=O)Nc2cccc(C(=O)c3ccc4c(/C=C/c5ccccn5)n[nH]c4c3)c2)cc(Cl)n1 [Example 41(q), 6-[3-((2-Chloro-6-methylpyridin-4-yl)carboxanlido)benzoyl]-3-E-[2-(pyridin-2-yl)ethenyl]-1H-indazole]

- AUClast [1, 4]: 10949 ng·h/mL
- plasma half-life (T1/2) [1, 4]: 4.4 h
- concentration at 7 h [1, 5]: 749 ng/mL
SMILES: CCc1cc(C(=O)Nc2cccc(C(=O)c3ccc4c(/C=C/c5ccccn5)n[nH]c4c3)c2)n(C)n1 [Example 41(v), 6-[3-((3-Ethyl-1-methyl-1H-pyrazol-5-yl)carboxamido)benzoyl]-3-E-[2-(pyridin-2-yl)ethenyl]-1H-indazole]

- AUClast [1, 4]: Blq
- Cmax [1, 4]: Blq
- Cmin (7 hr conc.) [1, 4]: blq
- plasma half-life (T1/2) [1, 4]: blq
SMILES: CC(C)COC(=O)Nc1cccc(C(=O)c2ccc3c(/C=C/c4ccccn4)n[nH]c3c2)c1 [Example 41(y)]

SMILES: CCn1nc(C)cc1C(=O)Nc1cccc(C(=O)c2ccc3c(/C=C/c4ccccn4)n[nH]c3c2)c1.Cl [Example 59(a), 6-[3-((1-Ethyl-3-methyl-1H-pyrazol-5-yl)carboxamido)benzoyl]-3-E-[2-(pyridin-2-yl)ethenyl]-1H-indazole Hydrochloride]
- plasma half-life (T1/2) ([1]; PO, 8 mg/kg, vehicle 0.5% CMC): 1.5 h
- plasma half-life (T1/2) ([1]; PO, 40 mg/kg, vehicle 0.5% CMC): 2.4 h
- plasma half-life (T1/2) ([1]; PO, 200 mg/kg, vehicle 0.5% CMC): 9.4 h
- AUC(0-t) [1, 10]: 7710 ng·h/mL
- Cmax [1, 11]: 2490 ng/mL
- concentration at 7 h [1, 12]: 122 ng/mL
- AUC(0-t) [1, 13]: 50800 ng·h/mL
- Cmax [1, 14]: 15900 ng/mL
- concentration at 7 h [1, 15]: 1200 ng/mL
- AUC(0-t) [1, 16]: 57200 ng·h/mL
- Cmax [1, 17]: 13800 ng/mL
- concentration at 7 h [1, 18]: 1880 ng/mL
- AUC(0-t) [1, 19]: 156000 ng·h/mL
- Cmax [1, 20]: 30000 ng/mL
- concentration at 7 h [1, 21]: 12100 ng/mL

SMILES: Cc1cc(C(=O)Nc2cccc(C(=O)c3ccc4c(/C=C/c5ccccn5)n[nH]c4c3)c2)n(C)n1.Cl [Example 59(b), 6-[3-((1,3-Dimethyl-1H-pyrazol-5-yl)carboxamido)benzoyl]-3-E-[2-(pyridin-2-yl)ethenyl]-1H-indazole Hydrochloride]
- AUC(0-t) ([1]; female, PO, 50 mg/kg, vehicle CMC): 276000 ng·h/mL
- concentration at 7 hr ([1]; female, PO, 50 mg/kg, vehicle CMC, read-out: Cmin (7 hr conc.)): 26900 ng/mL

SMILES: CCn1nc(C)cc1C(=O)Nc1cc(Nc2ccc3c(/C=C/c4ccccn4)n[nH]c3c2)c(F)cc1C.Cl [Example 59(c), 6-[N-(5-((1-Ethyl-3-methyl-1H-pyrazol-5-yl)carboxamido)-2-fluoro-4-methylphenyl)amino]-3-E-[2-(pyridin-2-yl)ethenyl]-1H-indazole Hydrochloride]
- AUC(0-t) ([1]; female, PO, 25 mg/kg, vehicle CMC): 327000 ng·h/mL
- Cmax ([1]; female, PO, 25 mg/kg, vehicle CMC, read-out: Cmax): 50000 ng/mL

SMILES: Cc1cc(C(=O)Nc2cc(Nc3ccc4c(/C=C/c5ccccn5)n[nH]c4c3)ccc2F)n(C)n1.Cl [Example 59(d), 6-[N-(3-((1,3-Dimethyl-1H-pyrazol-5-yl)carboxamido)4-fluoro-phenyl)amino]-3-E-[2-(pyridin-2-yl)ethenyl]-1H-indazole Hydrochloride]
- AUC(0-t) [1, 10]: > 24700 ng·h/mL
- Cmax [1, 11]: > 5000 ng/mL
- concentration at 7 h [1, 12]: 1900 ng/mL
- AUC(0-t) [1, 16]: > 32300 ng·h/mL
- Cmax [1, 17]: > 5000 ng/mL
- concentration at 7 h [1, 18]: 4140 ng/mL
- AUC(0-t) [1, 19]: > 123000 ng·h/mL
- Cmax [1, 20]: > 20000 ng/mL
- concentration at 7 h [1, 21]: 12700 ng/mL

SMILES: CCn1nc(C)cc1C(=O)Nc1cccc(Oc2ccc3c(/C=C/c4ccccn4)n[nH]c3c2)c1.Cl [Example 59(e), 6-[3-((1-Ethyl-3-methyl-1H-pyrazol-5-yl)carboxamido)phenoxy]-3-E-[2-(pyridin-2-yl)ethenyl]-1H-indazole Hydrochloride]
- plasma half-life (T1/2) ([1]; PO, 25 mg/kg, vehicle 0.5% CMC): 21 h
- AUC(0-t) [1, 13]: 12500 ng·h/mL
- Cmax [1, 14]: 28800 ng/mL
- concentration at 7 h [1, 15]: 2140 ng/mL

SMILES: O=C(NC1CCSC1=O)c1ccccc1Sc1ccc2c(/C=C/c3ccccn3)n[nH]c2c1 (stereo not shown) [drawing 785]
- % inhibition of the proliferation of HUVEC [2, 22]: 25%
- % inhibition of the proliferation of HUVEC [2, 23]: 40%

SMILES: O=C(NCc1cccc(F)c1)c1ccccc1Sc1ccc2c(/C=C/c3ccccn3)n[nH]c2c1 [drawing 797]
- % inhibition of the proliferation of HUVEC [2, 22]: 81%
- % inhibition of the proliferation of HUVEC [2, 23]: 95%

SMILES: CC(C)CC(CO)NC(=O)c1ccccc1Sc1ccc2c(C=Cc3ccccn3)n[nH]c2c1 (stereo not shown) [drawing 1015]
- % inhibition ([2]; 0.0005 µM): −13%

SMILES: CC(C)CC(CO)NC(=O)c1ccccc1Sc1ccc2c(C=Cc3ccccn3)n[nH]c2c1 (stereo not shown) [drawing 1021]
- % inhibition [2]: −2%

SMILES: O=C(Nc1cccc(Cl)c1)c1ccccc1Sc1ccc2c(/C=C/c3ccccn3)n[nH]c2c1 [drawing 1041]
- % inhibition [2]: −15%

SMILES: O=C(NC1CC1)c1ccccc1Sc1ccc2c(/C=C/c3ccccn3)n[nH]c2c1 [drawing 1069]
- % inhibition [2]: 29%

SMILES: C#CCNC(=O)c1ccccc1Sc1ccc2c(/C=C/c3ccccn3)n[nH]c2c1 [drawing 1123]
- % inhibition [2]: 9%

SMILES: O=C(Nc1ccccc1)c1ccccc1Sc1ccc2c(/C=C/c3ccccn3)n[nH]c2c1 [drawing 1131]
- % inhibition [2]: 11%

SMILES: O=C(NC1CCSC1=O)c1ccccc1Sc1ccc2c(/C=C/c3ccccn3)n[nH]c2c1 (stereo not shown) [drawing 1141]
- % inhibition [2]: −8%

SMILES: O=C(NCC1(O)CCCCC1)c1ccccc1Sc1ccc2c(/C=C/c3ccccn3)n[nH]c2c1 [drawing 1197]
- % inhibition [2]: 2%
